From PubChem BioAssay (NCI)
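In this assay, cells in 96-well plates receive the compound at five concentrations for 48 hours. Endpoints are linearly interpolated between the surrounding concentrations. TGI: total growth inhibition.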

Legend:
Assay in all cases: DTP human tumour cell line panel, 48 h
[1] = tested on: MDA-N
[2] = tested on: SK-MEL-28 melanoma
[3] = tested on: K-562 leukemia
[4] = tested on: HT29 colon
[5] = tested on: SW-620 colon
[6] = tested on: 786-0 renal
[7] = tested on: A549 NSCLC
[8] = tested on: SK-MEL-5 melanoma
[9] = tested on: OVCAR-8 ovarian
[10] = tested on: T-47D breast
[11] = tested on: M14 melanoma
[12] = tested on: MCF7 breast
[13] = tested on: TK-10 renal
[14] = tested on: PC-3 prostate
[15] = tested on: SF-539 CNS
[16] = tested on: SN12C renal
[17] = tested on: OVCAR-4 ovarian
[18] = tested on: HOP-62 NSCLC
[19] = tested on: A498 renal
[20] = tested on: KM12 colon
[21] = tested on: ACHN renal
[22] = tested on: HCT-116 colon
[23] = tested on: HS 578T breast
[24] = tested on: SF-268 CNS
[25] = tested on: NCI-H23 lung
[26] = tested on: HCC-2998 colon
[27] = tested on: CAKI-1 renal
[28] = tested on: UACC-62 melanoma
[29] = tested on: UO-31 renal
[30] = tested on: SR leukemia
[31] = tested on: MALME-3M melanoma
[32] = tested on: UACC-257 melanoma
[33] = tested on: SNB-19 CNS
[34] = tested on: OVCAR-3 ovarian
[35] = tested on: SF-295 CNS
[36] = tested on: MDA-MB-435
[37] = tested on: SK-OV-3 ovarian
[38] = tested on: MOLT-4 leukemia
[39] = tested on: HL-60(TB) leukemia
[40] = tested on: NCI-H522 lung
[41] = tested on: COLO 205 colon
[42] = tested on: U251 CNS
[43] = tested on: RXF 393 renal
[44] = tested on: SNB-75 CNS
[45] = tested on: EKVX NSCLC
[46] = tested on: RPMI-8226 leukemia
[47] = tested on: IGROV1 ovarian
[48] = tested on: OVCAR-5 ovarian
[49] = tested on: NCI-H226 lung
[50] = tested on: DU-145 prostate
[51] = tested on: NCI/ADR-RES ovarian
[52] = tested on: SK-MEL-2 melanoma
[53] = tested on: HOP-92 NSCLC
[54] = tested on: NCI-H460 lung
[55] = tested on: CCRF-CEM leukemia
[56] = tested on: MDA-MB-231 breast
[57] = tested on: BT-549 breast
[58] = tested on: HCT-15 colon
[59] = tested on: LOX IMVI melanoma

With `COc1ccc(/C=C(/c2ccccc2)c2c(C)cc(C)c(/C(=C\c3ccc(OC)cc3)c3ccccc3)c2N=Nc2cc(C)cc(C)c2)cc1` the TGI [1] was over 100 µM, the TGI [2] was over 100 µM and the TGI [3] was over 100 µM. The TGI [4] was over 100 µM, the TGI [5] was over 100 µM and the TGI [6] was over 100 µM. It also gave a TGI [7] of over 100 µM, a TGI [8] of 37.6 µM and a TGI [9] of over 100 µM. The TGI [10] was over 100 µM, the TGI [11] was over 100 µM and the TGI [12] was over 100 µM. For the same compound, the TGI [13] was over 74.4 µM, the TGI [14] was over 100 µM and the TGI [15] was over 100 µM. It also gave a TGI [16] of 23.4 µM, a TGI [17] of over 100 µM and a TGI [18] of over 100 µM. The TGI [19] was over 100 µM, the TGI [20] was over 71.9 µM and the TGI [21] was over 100 µM. The TGI [22] was over 87.8 µM, the TGI [23] was over 100 µM and the TGI [24] was over 100 µM. It also gave a TGI [25] of over 83.8 µM, a TGI [26] of over 25.8 µM and a TGI [27] of over 100 µM. It also gave a TGI [28] of over 100 µM, a TGI [29] of over 100 µM and a TGI [30] of over 100 µM. It also gave a TGI [31] of 56.6 µM, a TGI [32] of 18.8 µM and a TGI [33] of over 100 µM. For the same compound, the TGI [34] was 30.2 µM, the TGI [35] was over 100 µM and the TGI [36] was over 62.2 µM. The TGI [37] was over 100 µM, the TGI [38] was over 100 µM and the TGI [39] was over 42.4 µM. It also gave a TGI [40] of over 64.1 µM, a TGI [41] of 24.3 µM and a TGI [42] of over 100 µM. It also gave a TGI [43] of over 95.9 µM, a TGI [44] of 34.2 µM and a TGI [45] of over 100 µM. The TGI [46] was over 100 µM, the TGI [47] was over 100 µM and the TGI [48] was over 100 µM. It also gave a TGI [49] of over 100 µM, a TGI [50] of over 100 µM and a TGI [51] of over 100 µM. It also gave a TGI [52] of 21.8 µM, a TGI [53] of over 100 µM and a TGI [54] of over 75.2 µM. For the same compound, the TGI [55] was over 100 µM, the TGI [56] was 16 µM and the TGI [57] was over 100 µM. It also gave a TGI [58] of over 100 µM and a TGI [59] of over 100 µM.

Compound `CSc1ccc2c(cc1=O)[C@@H](NC(=O)c1ccc([N+](=O)[O-])cc1)CCc1cc(O)c(O)c(O)c1-2` has a TGI [1] of 67.4 µM, a TGI [2] of over 100 µM and a TGI [3] of over 100 µM. For the same compound, the TGI [4] was 40.8 µM, the TGI [5] was over 100 µM and the TGI [6] was 84.1 µM. The TGI [7] was 77.7 µM, the TGI [8] was 53.1 µM and the TGI [9] was over 100 µM. The TGI [10] was over 100 µM, the TGI [11] was over 100 µM and the TGI [12] was over 100 µM. It also gave a TGI [13] of over 100 µM, a TGI [14] of over 100 µM and a TGI [15] of over 100 µM. It also gave a TGI [16] of 62.5 µM, a TGI [17] of over 100 µM and a TGI [18] of 33.4 µM. It also gave a TGI [19] of over 100 µM, a TGI [20] of 37.4 µM and a TGI [21] of over 100 µM. The TGI [22] was over 100 µM, the TGI [23] was 62 µM and the TGI [24] was over 100 µM. For the same compound, the TGI [25] was over 100 µM, the TGI [26] was over 100 µM and the TGI [27] was 42.6 µM. For the same compound, the TGI [28] was over 100 µM, the TGI [29] was over 100 µM and the TGI [30] was over 100 µM. It also gave a TGI [31] of over 100 µM, a TGI [32] of over 100 µM and a TGI [33] of over 100 µM. The TGI [34] was 31.1 µM, the TGI [35] was over 100 µM and the TGI [36] was over 100 µM. For the same compound, the TGI [37] was over 100 µM, the TGI [38] was over 100 µM and the TGI [39] was 57.5 µM. The TGI [40] was over 100 µM, the TGI [41] was 53.7 µM and the TGI [42] was over 100 µM. The TGI [43] was over 100 µM, the TGI [44] was over 100 µM and the TGI [45] was over 100 µM. The TGI [46] was over 100 µM, the TGI [47] was over 100 µM and the TGI [48] was over 100 µM. For the same compound, the TGI [49] was over 100 µM, the TGI [50] was over 100 µM and the TGI [51] was 53.6 µM. The TGI [52] was over 100 µM, the TGI [53] was over 100 µM and the TGI [54] was over 100 µM. The TGI [55] was over 100 µM, the TGI [56] was 81.2 µM and the TGI [57] was over 100 µM. For the same compound, the TGI [58] was 85.1 µM and the TGI [59] was over 100 µM.
